Results taken from PMC11279404, “Discovery of 1H-benzo[d]imidazole-(halogenated)Benzylidenebenzohydrazide Hybrids as Potential Multi-Kinase Inhibitors” (Pharmaceuticals, 2024).

Columns and labels:
mTOR = mTOR (Homo sapiens, UniProt P42345); experiment: In vitro enzyme inhibition, mTOR
HepG2 cells [1] = experiment: Cell cycle analysis (propidium iodide flow cytometry); assay type: cell-based, human
Description: Following the treatment, the cells were stained with propidium iodide and analyzed using flow cytometry to determine the cell cycle phase distribution. […] The quantitative data further substantiated this observation. […] It led to a marked accumulation of cells in the G1 phase, accompanied by a concomitant reduction in the proportion of cells in the S and G2/M phases. The cell cycle arrest effect observed with compound 6i may be a key mechanistic aspect contributing to its anticancer potential. The observed cell cycle arrest at the G1 phase is a common mechanism of action for many anti-cancer agents, as it can prevent cell division and proliferation, ultimately leading to cell cycle arrest and potentially inducing apoptosis or other forms of cell death.
The cell cycle distribution index (CDI) is a metric that quantifies the rate of cell proliferation, calculated as CDI = (G2/M + S)/[…], where the values represent the percentages of cells in each phase. In this study, the CDI values for the control and compound 6i-treated HepG2 cells were 0.91 and 0.39, respectively. […] Compound 6i was further evaluated for apoptosis analysis in HepG2 cell lines.

HepG2 cells [2] = experiment: Annexin-V/propidium iodide double staining apoptosis assay; assay type: cell-based, human; conditions: HepG2 cells treated at IC50 concentration for 24 h
Procedure: To investigate the mode of cell death induced by the synthesized compound 6i, flow cytometry analysis was performed. […] Following the treatment, the cells were double-stained with Annexin V and propidium iodide (PI) to assess the levels of apoptosis and necrosis. The data presented in Table 4 reveal a significant decline in the percentage of viable cells in the compound 6i-treated group (63.93%) compared with the untreated control group (97.58%). […] Additionally, in the late stages of apoptosis, the percentage of apoptotic cells rose from 0.21% in the control group to 9.98% in the compound 6i-treated group. […] The apoptosis levels in the control HepG2 cell lines and the cells treated with compound 6i are shown in the graphical representation provided in Figure 3.
The apoptosis effect of compound 6i was studied using a previously reported method.

[3] = test system: cancer cell lines (HCT-116, HepG2, MCF-7); experiment: MTT in vitro cytotoxicity, summary across the cancer cell line panel; assay type: cell-based; conditions: Homo sapiens; summary over HCT-116, HepG2, MCF-7; read-out: IC50 values across the tested cancer cell lines
Procedure: The cytotoxic activities of compounds 6a-l were assessed using a standard MTT method, which was performed across three different cancer cell line models, namely human colon cancer (HCT-116), hepatocellular carcinoma (HepG2), mammary gland cancer (MCF-7), and normal (WI-38) cell lines. […] […]. Substitution at the 4-position, as in the case of compounds 6d, 6g, and 6j, also seems beneficial, with fluoro (6j) showing the best results. […]. Overall, the cytotoxicity data provide valuable insights into the structure–activity relationships of the synthesized compounds and can guide further optimization efforts to develop potential anticancer agents with improved potency and selectivity.
. The SI values represent the ratio of the IC50 values for the normal WI-38 cell line compared with the respective cancer cell lines, with higher SI values indicating greater selectivity for the cancer cells over normal cells. […]. The cytotoxic potential of compounds 6a-l was evaluated against a panel of cancer cell lines, including HCT-116, HepG2, and MCF-7, as well as a normal cell line, WI-38, using the reported methodology. The cell lines utilized in this study were obtained from the American Type Culture Collection (ATCC) through the Holding Company for Biological Products and Vaccines (VACSERA) in Cairo, Egypt. These included: 1. A human colon cancer cell line (HCT-116); 2. Hepatocellular carcinoma (HepG2)—a liver cancer cell line; 3. Mammary gland breast cancer (MCF-7); and 4. A human lung fibroblast (WI-38)—a normal cell line.

Her2 = Her2 (Homo sapiens, UniProt P04626); experiment: In vitro protein kinase inhibition, Her2
Chain of Her2 (P04626 23-1255): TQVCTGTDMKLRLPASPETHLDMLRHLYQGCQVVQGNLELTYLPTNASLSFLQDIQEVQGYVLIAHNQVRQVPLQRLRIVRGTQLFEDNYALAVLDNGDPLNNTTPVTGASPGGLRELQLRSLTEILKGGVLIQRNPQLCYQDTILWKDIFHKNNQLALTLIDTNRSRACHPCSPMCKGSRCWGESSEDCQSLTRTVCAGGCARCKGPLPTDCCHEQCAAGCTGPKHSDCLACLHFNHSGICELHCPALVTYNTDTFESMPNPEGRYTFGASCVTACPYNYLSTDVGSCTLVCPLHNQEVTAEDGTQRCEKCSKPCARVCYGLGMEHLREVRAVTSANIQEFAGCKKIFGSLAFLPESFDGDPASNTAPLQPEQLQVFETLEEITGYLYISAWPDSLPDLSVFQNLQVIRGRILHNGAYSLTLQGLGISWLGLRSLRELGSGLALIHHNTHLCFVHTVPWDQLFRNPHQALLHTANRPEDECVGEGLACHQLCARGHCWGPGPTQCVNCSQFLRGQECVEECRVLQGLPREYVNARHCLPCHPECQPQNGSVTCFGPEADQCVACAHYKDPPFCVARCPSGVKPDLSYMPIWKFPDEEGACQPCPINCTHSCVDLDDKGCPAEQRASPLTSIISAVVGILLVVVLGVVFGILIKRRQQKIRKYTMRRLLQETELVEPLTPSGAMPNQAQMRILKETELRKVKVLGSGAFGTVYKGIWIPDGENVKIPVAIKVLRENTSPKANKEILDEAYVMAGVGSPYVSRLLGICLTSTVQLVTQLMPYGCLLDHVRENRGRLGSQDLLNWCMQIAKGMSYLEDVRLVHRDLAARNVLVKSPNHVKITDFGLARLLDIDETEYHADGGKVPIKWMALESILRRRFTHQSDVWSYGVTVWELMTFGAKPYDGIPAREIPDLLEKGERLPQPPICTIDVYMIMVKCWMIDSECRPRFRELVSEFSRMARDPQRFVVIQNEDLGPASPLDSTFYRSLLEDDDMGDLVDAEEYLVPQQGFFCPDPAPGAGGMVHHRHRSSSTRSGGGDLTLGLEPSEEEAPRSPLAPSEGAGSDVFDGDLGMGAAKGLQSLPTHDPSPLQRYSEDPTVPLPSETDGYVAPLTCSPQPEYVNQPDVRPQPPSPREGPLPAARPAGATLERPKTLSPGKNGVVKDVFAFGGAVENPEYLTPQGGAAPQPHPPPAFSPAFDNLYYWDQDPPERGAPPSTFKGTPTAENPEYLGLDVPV

[4] = test system: HCT-116 (human colon cancer cell line); experiment: MTT in vitro cytotoxicity, HCT-116; assay type: cell-based
AURKC = target: T1, AURKC (Homo sapiens, UniProt Q9UQB9); experiment: In vitro protein kinase inhibition, AURKC
T1 sequence (Q9UQB9 1-309): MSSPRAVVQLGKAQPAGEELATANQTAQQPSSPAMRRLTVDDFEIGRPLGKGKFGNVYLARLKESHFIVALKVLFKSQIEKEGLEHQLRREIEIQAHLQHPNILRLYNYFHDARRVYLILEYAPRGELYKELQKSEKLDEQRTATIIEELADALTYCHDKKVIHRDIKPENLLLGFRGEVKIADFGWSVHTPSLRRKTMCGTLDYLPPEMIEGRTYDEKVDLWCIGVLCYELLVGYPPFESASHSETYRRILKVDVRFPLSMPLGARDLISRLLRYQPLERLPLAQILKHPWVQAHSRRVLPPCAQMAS

[5] = test system: MCF-7 (mammary gland breast cancer cell line); experiment: MTT in vitro cytotoxicity, MCF-7; assay type: cell-based, human
HDAC1 = HDAC1 (Homo sapiens, UniProt Q13547); experiment: In vitro enzyme inhibition, HDAC1; assay type: biochemical; conditions: mean ± SD of triplicate; read-out: In Vitro Protein Kinase Inhibition IC50 HDAC1
Chain of HDAC1 (Q13547 whole entry): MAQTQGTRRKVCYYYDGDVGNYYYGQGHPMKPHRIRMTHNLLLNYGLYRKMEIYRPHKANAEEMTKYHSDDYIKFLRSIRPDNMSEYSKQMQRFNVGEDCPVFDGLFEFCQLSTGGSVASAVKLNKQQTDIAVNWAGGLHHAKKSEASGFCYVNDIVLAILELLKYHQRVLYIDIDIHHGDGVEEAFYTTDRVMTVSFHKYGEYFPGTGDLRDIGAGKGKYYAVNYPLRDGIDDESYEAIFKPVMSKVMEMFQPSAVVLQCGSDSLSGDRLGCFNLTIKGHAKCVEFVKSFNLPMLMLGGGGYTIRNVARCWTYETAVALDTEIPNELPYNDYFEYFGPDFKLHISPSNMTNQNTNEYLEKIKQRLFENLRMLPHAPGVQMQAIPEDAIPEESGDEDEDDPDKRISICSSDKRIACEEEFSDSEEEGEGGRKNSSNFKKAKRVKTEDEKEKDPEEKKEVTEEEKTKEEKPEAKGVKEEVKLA

CDK2 = CDK2 (Homo sapiens, UniProt P24941); experiment: In vitro protein kinase inhibition, CDK2
[6] = test system: HepG2 (hepatocellular carcinoma cell line); experiment: MTT in vitro cytotoxicity, HepG2; assay type: cell-based, human
caspase-3 = experiment: Apoptotic protein level by ELISA, caspase-3; assay type: cell-based, human; conditions: HepG2 cells, ELISA; control 99.904 ± 3.88; mean ± SD of triplicate
Procedure: (§1) To further elucidate the mechanism by which compound 6i induces cell death, the expression levels of key apoptotic proteins were assessed in the HepG2 cell line. […] Specifically, the levels of the pro-apoptotic proteins caspase-3 and Bax were markedly higher in the compound 6i-treated group compared with the control. […] Additional studies are warranted to elucidate the detailed molecular mechanisms underlying the apoptosis-inducing effects of compound 6i and to assess its therapeutic potential in relevant in vivo models.
(§2) Apoptotic protein levels for compound 6i were determined using an ELISA technique for caspase-3, BAX, and Bcl-2, applying a previously reported method.

VEGFR2 = VEGFR2 (Homo sapiens, UniProt P35968); experiment: In vitro protein kinase inhibition, VEGFR2; assay type: biochemical; conditions: mean ± SD of triplicate
Chain of VEGFR2 (P35968 20-1356): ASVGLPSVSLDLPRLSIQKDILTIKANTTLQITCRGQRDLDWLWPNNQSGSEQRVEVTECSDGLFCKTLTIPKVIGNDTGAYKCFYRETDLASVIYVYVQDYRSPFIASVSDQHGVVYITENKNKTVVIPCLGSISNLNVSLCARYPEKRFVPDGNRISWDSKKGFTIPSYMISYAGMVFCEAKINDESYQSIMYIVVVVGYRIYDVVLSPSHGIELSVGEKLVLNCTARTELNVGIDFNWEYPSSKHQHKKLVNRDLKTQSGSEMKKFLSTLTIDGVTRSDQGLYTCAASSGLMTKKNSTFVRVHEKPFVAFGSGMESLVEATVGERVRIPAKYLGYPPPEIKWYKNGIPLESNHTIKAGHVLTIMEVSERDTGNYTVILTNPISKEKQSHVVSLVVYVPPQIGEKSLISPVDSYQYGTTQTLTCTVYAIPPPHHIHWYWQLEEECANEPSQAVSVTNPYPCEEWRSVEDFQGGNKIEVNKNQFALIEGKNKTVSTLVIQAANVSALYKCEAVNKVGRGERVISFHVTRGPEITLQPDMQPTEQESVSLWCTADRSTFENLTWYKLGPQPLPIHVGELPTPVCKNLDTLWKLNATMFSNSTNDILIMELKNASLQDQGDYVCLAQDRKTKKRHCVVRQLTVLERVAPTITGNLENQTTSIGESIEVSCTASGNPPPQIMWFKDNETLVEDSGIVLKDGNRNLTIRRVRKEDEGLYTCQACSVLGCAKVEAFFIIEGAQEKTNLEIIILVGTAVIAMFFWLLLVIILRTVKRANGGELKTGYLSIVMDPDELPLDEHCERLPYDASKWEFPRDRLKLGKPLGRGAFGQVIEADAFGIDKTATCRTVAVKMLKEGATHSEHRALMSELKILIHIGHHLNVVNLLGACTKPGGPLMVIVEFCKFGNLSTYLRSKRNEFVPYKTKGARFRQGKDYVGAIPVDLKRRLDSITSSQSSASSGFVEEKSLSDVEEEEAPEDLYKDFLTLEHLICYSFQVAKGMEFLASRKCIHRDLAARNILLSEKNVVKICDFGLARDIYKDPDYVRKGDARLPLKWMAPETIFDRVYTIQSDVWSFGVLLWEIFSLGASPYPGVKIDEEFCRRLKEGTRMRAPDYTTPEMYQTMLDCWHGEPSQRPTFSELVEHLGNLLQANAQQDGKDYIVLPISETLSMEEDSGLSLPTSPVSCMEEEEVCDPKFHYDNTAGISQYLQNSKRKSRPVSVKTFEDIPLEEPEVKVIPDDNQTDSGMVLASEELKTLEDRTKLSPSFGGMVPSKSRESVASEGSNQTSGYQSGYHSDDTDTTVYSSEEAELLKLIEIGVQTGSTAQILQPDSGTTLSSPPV
Description: […]. […] […].

Bax = experiment: Apoptotic protein level by ELISA, Bax; assay type: cell-based, human; conditions: HepG2 cells
Procedure: as §1, §2

[7] = MTT in vitro cytotoxicity, normal WI-38; assay type: cell-based; conditions: human, WI-38 normal lung fibroblast cells, normal cell line, mean ± SD of triplicate
Bcl-2 = experiment: Apoptotic protein level by ELISA, Bcl-2; assay type: cell-based, human; conditions: HepG2 cells
EGFR = EGFR (Homo sapiens, UniProt P00533); experiment: In vitro protein kinase inhibition, EGFR
Chain of EGFR (P00533 25-1210): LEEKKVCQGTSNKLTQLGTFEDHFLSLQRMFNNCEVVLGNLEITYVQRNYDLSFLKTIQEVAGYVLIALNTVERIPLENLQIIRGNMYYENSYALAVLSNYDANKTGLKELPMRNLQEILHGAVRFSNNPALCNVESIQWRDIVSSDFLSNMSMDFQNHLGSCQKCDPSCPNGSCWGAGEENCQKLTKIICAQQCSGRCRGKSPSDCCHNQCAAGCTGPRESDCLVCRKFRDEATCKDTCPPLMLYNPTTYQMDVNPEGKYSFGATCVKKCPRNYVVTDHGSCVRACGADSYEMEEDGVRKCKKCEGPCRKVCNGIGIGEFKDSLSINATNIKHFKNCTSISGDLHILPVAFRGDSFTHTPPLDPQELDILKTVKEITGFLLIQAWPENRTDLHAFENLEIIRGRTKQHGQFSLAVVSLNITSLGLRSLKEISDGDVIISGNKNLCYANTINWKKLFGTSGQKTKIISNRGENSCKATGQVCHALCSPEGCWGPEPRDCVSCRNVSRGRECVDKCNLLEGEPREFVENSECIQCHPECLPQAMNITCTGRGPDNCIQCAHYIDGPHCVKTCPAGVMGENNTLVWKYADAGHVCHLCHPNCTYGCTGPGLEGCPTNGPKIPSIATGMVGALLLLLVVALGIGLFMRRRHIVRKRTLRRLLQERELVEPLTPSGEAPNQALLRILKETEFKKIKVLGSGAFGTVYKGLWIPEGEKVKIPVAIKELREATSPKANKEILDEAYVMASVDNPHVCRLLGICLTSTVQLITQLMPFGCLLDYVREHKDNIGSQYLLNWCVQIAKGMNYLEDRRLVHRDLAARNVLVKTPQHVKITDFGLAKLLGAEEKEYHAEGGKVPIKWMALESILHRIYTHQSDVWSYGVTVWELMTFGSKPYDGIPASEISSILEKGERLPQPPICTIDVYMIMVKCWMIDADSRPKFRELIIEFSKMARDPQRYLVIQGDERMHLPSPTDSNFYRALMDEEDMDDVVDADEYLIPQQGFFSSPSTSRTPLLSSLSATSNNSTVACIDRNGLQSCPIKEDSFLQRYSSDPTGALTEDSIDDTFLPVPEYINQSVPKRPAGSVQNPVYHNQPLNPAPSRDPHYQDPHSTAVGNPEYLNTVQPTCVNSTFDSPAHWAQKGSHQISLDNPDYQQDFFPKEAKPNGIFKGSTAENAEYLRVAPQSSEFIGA

IC50 (mTOR): 152 ± 0.005 nM
IC50 (Her2): 28.3 ± 0.001 nM
IC50 (AURKC): 74.5 ± 0.003 nM
IC50 (HDAC1): 96.6 ± 0.003 nM
IC50 (CDK2): 364 ± 0.011 nM
IC50 (VEGFR2): 172.2 ± 0.006 nM
IC50 (EGFR): 30.1 ± 0.03 nM
SMILES: O=C(N/N=C/c1cccc(F)c1)c1ccc(NCc2nc3ccccc3[nH]2)cc1 [6i, (E)-4-(((1H-benzo[d]imidazol-2-yl)methyl)amino)-N′-(3-fluorobenzylidene)benzohydrazide]
Cell Cycle Distribution Index (CDI) (HepG2 cells [1]; CDI = (G2/M + S)/(G0-G1), HepG2, IC50 concentration, 24 h, control 0.91): 0.39
DNA Content (%) %G2/M (HepG2 cells [1]; HepG2 cells treated at IC50 concentration for 24 h, control 12.84): 2.68%
DNA Content (%) %S (HepG2 cells [1]; HepG2 cells treated at IC50 concentration for 24 h, control 34.77): 25.19%
DNA Content (%) %G0-G1 (HepG2 cells [1]; HepG2 cells treated at IC50 concentration for 24 h, control 52.39): 72.13%
Apoptosis Late (HepG2 cells [2]; control 0.21): 9.98%
Apoptosis Early (HepG2 cells [2]; control 0.61): 22.07%
Necrosis (HepG2 cells [2]; control 1.6): 4.02%
Alive Cell (%) (HepG2 cells [2]; control 97.58): 63.93%
IC50 [3]: 7820 to 10200 nM
IC50 ([4]; Homo sapiens, HCT-116, MTT, mean ± SD of triplicate): 13400 ± 1200 nM
SI (Selectivity Index) HCT-116 ([4]; IC50 of WI-38 / IC50 of HCT-116): 4.20
IC50 ([5]; Homo sapiens, MCF7, MTT, mean ± SD of triplicate): 11600 ± 900 nM
SI (Selectivity Index) MCF-7 ([5]; IC50 of WI-38 / IC50 of MCF-7): 4.85
IC50 ([6]; Homo sapiens, HepG2, MTT, mean ± SD of triplicate): 9390 ± 800 nM
SI (Selectivity Index) HepG2 ([6]; IC50 of WI-38 / IC50 of HepG2): 6.01
Protein Expression Caspase-3 (caspase-3): 388.497 ± 15.09 pg/mL
Protein Expression Bax (Bax; ELISA, control 71.075 ± 2.762, mean ± SD of triplicate): 513.731 ± 19.96 pg/mL
Protein Expression Bax (Folds) (Bax; relative to control (1)): 7.22 Folds
IC50 [7]: 56500 ± 3000 nM
Bcl-2 level, fold lower compared with the control (Bcl-2): 7.5 fold
Protein Expression Bcl-2 (Bcl-2; ELISA, control 15.668 ± 0.53, mean ± SD of triplicate): 2.073 ± 0.07 pg/mL
Protein Expression Bcl-2 (Folds) (Bcl-2; relative to control (1)): 0.132 Folds
